From the supplement of paper PMC10307832

Assays:
[1] = compound: NC1(c2ccc(-c3nc4ccn5c(=O)[nH]nc5c4cc3-c3ccccc3)cc2)CCC1 [MK-2206]; assay: relative viability (nuclei count vs DMSO), 5 days (fraction); higher = more cells survive
Summary of the method: (§1)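 Acceptance criteria were a control CV below 25% and at least one doubling per plate. Lung cancer cell lines in 1536-well plates got five library-drug doses (not always all listed) √10 apart by pinning and were left 5 days with no medium change. Viability divides treated-well nuclei by vehicle-well nuclei and is the median across plates. Nuclei were counted by MetaXpress from 4× Hoechst images.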

[2] = compound: CS(=O)(=O)N1CCN(Cc2cc3nc(-c4cccc5[nH]ncc45)nc(N4CCOCC4)c3s2)CC1 [Pictilisib]; assay: as above
Summary of the method: as §1

Cell Line	relative viability ([1]; 0.01 µM)	relative viability ([1]; 0.03162 µM)	relative viability ([1]; 0.3162 µM)	relative viability ([1]; 1 µM)	relative viability ([2]; 0.02 µM)	relative viability ([2]; 0.06325 µM)	relative viability ([2]; 0.6325 µM)	relative viability ([2]; 1 µM, anchor plate)	relative viability ([2]; 2 µM)
201T	0.987	1.03	0.982	0.995	0.97	0.964	0.921	0.702	0.64
A549	1.02	1.07	0.921	0.877	0.992	0.97	0.731	0.517	0.437
A-427	1.04	1.06	0.981	0.974	1.1	1.07	0.921	0.698	0.74
ABC-1	0.947	0.949	0.884	0.879	1.02	0.962	0.764	0.782	0.551
BEN	0.97	1.08	1.07	0.836	1	1.01	0.951	0.57	0.75
CAL-12T	0.939	1.06	1.07	0.953	1.12	1.12	1.03	0.475	0.589
COR-L23	1.01	1.05	1.03	0.99	1.14	1.1	1.03	0.807	0.763
COR-L 105	0.854	0.958	0.934	0.801	1.1	0.974	0.871	0.391	0.555
Calu-6	1.02	1.06	1.01	0.962	1.05	1.04	1.01	0.907	0.792
ChaGo-K-1	1.02	1.14	0.968	0.866	1.04	1.02	0.893	0.783	0.815
EBC-1	0.986	1.01	0.819	0.29	0.943	1.14	0.868	0.409	0.272
EKVX	1.01	0.952	0.936	0.758	0.911	0.941	0.91	0.433	0.453
EMC-BAC-2	0.95	0.959	0.926	0.871	1.21	1.04	0.727	0.555	0.565
EPLC-272H	1.09	0.914	0.77	0.716	0.988	0.909	0.668	0.332	0.496
H3255	0.941	1.01	0.836	0.826	1.01	0.962	0.862	0.46	0.531
HARA	0.972	1.08	1.08	0.832	1.05	1.13	0.846	0.401	0.555
HCC-15	0.996	1.06	0.866	0.923	1.1	1.02	0.866	0.737	0.666
HCC-44	0.967	1.01	0.989	0.723	1.03	0.975	0.991	0.612	0.644
HCC-78	0.945	0.919	1.02	0.638	0.867	0.854	0.586	0.219	0.376

Cell Line	relative viability ([1]; 0.01 µM)	relative viability ([1]; 0.03162 µM)	relative viability ([1]; 0.3162 µM)	relative viability ([1]; 1 µM)	relative viability ([2]; 0.02 µM)	relative viability ([2]; 0.06325 µM)	relative viability ([2]; 0.6325 µM)	relative viability ([2]; 1 µM, anchor plate)	relative viability ([2]; 2 µM)
HCC-366	1.02	1.02	0.978	0.98	0.986	1.02	0.851	0.159	0.448
HCC-827	1.04	1.05	1.05	0.932	1.11	1.05	1.05	0.939	0.866
HOP-62	0.91	1.08	0.993	0.918	1.04	1.07	0.97	0.743	0.941
IA-LM	0.904	0.992	1.02	0.691	0.924	1.03	0.941	0.373	0.476
LC-2-ad	0.969	1.05	0.994	0.876	1.05	1.07	0.619	0.496	0.594
LCLC-97TM1	0.941	1.05	0.968	0.829	0.928	0.932	0.791	0.199	0.217
LCLC-103H	0.923	0.984	0.982	1.11	1.05	0.984	0.707	0.625	0.663
LK-2	0.944	1.09	1.05	0.911	0.938	0.926	0.656	0.598	0.415
LOU-NH91	0.983	0.999	1.02	0.875	1.02	0.987	0.874	0.538	0.681
LU99A	1.01	1.07	0.961	1.02	1.01	0.971	0.794	0.327	0.425
LXF-289	0.995	1.07	1.03	1.09	0.996	1.01	1.08	0.814	0.92
NCI-H23	0.944	0.909	0.896	0.783	1.01	1.09	0.808	0.525	0.478
NCI-H322M	0.914	1.06	0.981	1.05	0.988	0.973	0.714	0.531	0.453
NCI-H358	1.01	0.977	0.972	0.871	0.983	0.884	0.786	0.356	0.355
NCI-H441	1.09	1.05	0.845	0.921	1.01	1.06	0.595	0.514	0.48
NCI-H460	0.997	1.03	1.02	0.921	0.993	1.02	0.933	0.381	0.353
NCI-H520	0.992	0.871	0.553	0.331	0.998	0.886	0.361	0.298	0.203
NCI-H522	0.916	1.01	0.885	0.696	1	1.05	0.768		0.648
